In PubChem BioAssay (NCI):
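Results reflect a 48-hour exposure of cells in 96-well plates to compound at five concentrations. TGI marks complete inhibition of growth.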

Experiments:
Test in all cases: growth of human tumour cells (NCI), 48 h
CAKI-1 renal = tested on: CAKI-1 renal
COLO 205 colon = tested on: COLO 205 colon
DU-145 prostate = tested on: DU-145 prostate
EKVX NSCLC = tested on: EKVX NSCLC
HL-60(TB) leukemia = tested on: HL-60(TB) leukemia
HS 578T breast = tested on: HS 578T breast
HT29 colon = tested on: HT29 colon
MALME-3M melanoma = tested on: MALME-3M melanoma
SF-295 CNS = tested on: SF-295 CNS
SF-539 CNS = tested on: SF-539 CNS
SNB-75 CNS = tested on: SNB-75 CNS
SW-620 colon = tested on: SW-620 colon
UACC-257 melanoma = tested on: UACC-257 melanoma
SR leukemia = tested on: SR leukemia

Compound	TGI (CAKI-1 renal) [µM]	TGI (COLO 205 colon) [µM]	TGI (DU-145 prostate) [µM]	TGI (EKVX NSCLC) [µM]	TGI (HL-60(TB) leukemia) [µM]	TGI (HS 578T breast) [µM]	TGI (HT29 colon) [µM]	TGI (MALME-3M melanoma) [µM]	TGI (SF-295 CNS) [µM]	TGI (SF-539 CNS) [µM]	TGI (SNB-75 CNS) [µM]	TGI (SW-620 colon) [µM]	TGI (UACC-257 melanoma) [µM]	TGI (SR leukemia) [µM]
O=C(Nc1cccc(C(=O)NCCCO)c1)/C(=C/c1ccccc1)NC(=O)c1ccccc1	> 100	> 100	> 100	> 100	> 100	> 100	> 100	> 100	> 100	> 100	> 100	> 100	> 100	–
O=C1CC2CC(CC3(CO3)C2)C1F (centres undefined)	> 100	> 100	> 100	> 100	> 100	> 100	> 100	> 100	> 100	–	> 100	–	> 100	> 100
CCC1CCC2c3c([nH]c4ccc(C)cc34)C3C(=O)N(N(C)C)C(=O)C3C2C1 (centres undefined)	> 100	> 100	> 100	> 100	> 46.8	33	> 100	39.2	> 33.4	45.5	–	> 100	> 100	48.6
O=C(NCCCN(CCCCN(CCCNC(=O)c1cc(S(=O)(=O)O)cc(O)c1O)C(=O)c1cc(S(=O)(=O)O)cc(O)c1O)C(=O)c1cc(S(=O)(=O)O)cc(O)c1O)c1cc(S(=O)(=O)O)cc(O)c1O	> 100	> 100	> 100	–	> 100	> 100	> 100	> 100	–	–	> 100	> 100	> 100	> 100
COC(=O)/N=[N+](\[O-])C(c1ccccc1)c1ccccc1	> 100	> 100	> 100	> 100	> 100	> 100	> 100	> 100	–	> 100	> 100	> 100	> 100	> 100
O=c1[nH]nc(Cc2ccccc2)n1/N=C/c1ccc([N+](=O)[O-])cc1	> 100	> 100	> 100	> 100	> 100	> 100	> 100	> 100	> 100	> 100	> 100	> 100	> 100	–
CN1CCN(Cc2nc3c(s2)CCc2sccc2-3)CC1	> 100	> 100	> 100	> 100	–	> 100	> 100	> 100	> 100	–	> 100	> 100	> 100	99.7
CCOC(=O)N/N=C(\CC)OCC	> 100	> 100	> 100	> 100	> 100	> 100	–	> 100	> 100	> 100	> 100	–	> 100	> 100
CCOC(=O)C1(N)CC1	> 100	–	> 100	> 100	> 100	> 100	> 100	> 100	> 100	> 100	> 100	> 100	> 100	> 100
CS(=O)(=O)O[C@H]1[C@H](O)c2ccccc2[C@@H]1N=[N+]=[N-]	> 100	> 100	> 100	> 100	> 100	–	> 100	> 100	> 100	> 100	> 100	> 100	> 100	> 100
O=C(CN=C(CN(c1ccccc1)c1ccccc1)Oc1ccc(Cl)cc1Cl)n1ccnc1	–	> 100	> 100	> 100	–	> 100	> 100	> 100	> 100	> 100	> 100	> 100	> 100	> 100
Cc1ccc(C(=O)N/N=C(\N=Nc2ccccc2Cl)c2ccc(N(C)C)cc2)cc1	75.4	> 100	70.6	> 100	> 100	> 100	> 100	–	> 100	> 100	–	> 100	> 100	68.7
CCOc1cccc(-c2cc(=O)c3cc4c(cc3[nH]2)OCO4)c1	9.67	–	> 100	> 100	> 100	13.5	0.593	> 75.1	0.329	0.549	36.1	> 100	> 100	–
COc1cc(C2OC[C@@H]3C(=O)OC[C@H]23)cc(O)c1OC (some centres undefined)	> 100	> 100	> 100	> 100	> 100	> 100	> 100	–	> 100	> 100	> 100	> 100	> 100	> 100
C(#CC1(Nc2ccccc2)CCN(Cc2ccccc2)CC1)C1(Nc2ccccc2)CCN(Cc2ccccc2)CC1	44.5	3.5	> 56.2	> 46.4	11.7	37.2	39.4	> 65.6	> 56.2	34.9	29.7	> 56.2	–	> 24.8
CCOC(=O)C(NC(=O)CC)(Nc1ccc(F)cc1F)C(F)(F)F (centres undefined)	–	> 100	–	> 100	> 100	> 100	> 100	–	–	> 100	> 100	> 100	> 100	> 100
O=c1[nH]c2c(c(=O)[nH]1)C(c1ccc([N+](=O)[O-])cc1)c1c([nH]c(=O)[nH]c1=O)O2	> 100	> 100	> 100	> 100	> 100	> 100	> 100	–	> 100	–	–	> 100	> 100	–
CCNc1nnc(-c2ccccc2Nc2ccccc2-c2nnc(NCC)s2)s1	17	> 53.9	40.1	> 100	–	> 65.7	60.5	58.4	40.5	–	> 87.9	> 100	90.3	> 100

Compound	TGI (CAKI-1 renal) [µM]	TGI (COLO 205 colon) [µM]	TGI (DU-145 prostate) [µM]	TGI (EKVX NSCLC) [µM]	TGI (HL-60(TB) leukemia) [µM]	TGI (HS 578T breast) [µM]	TGI (HT29 colon) [µM]	TGI (MALME-3M melanoma) [µM]	TGI (SF-295 CNS) [µM]	TGI (SF-539 CNS) [µM]	TGI (SNB-75 CNS) [µM]	TGI (SW-620 colon) [µM]	TGI (UACC-257 melanoma) [µM]	TGI (SR leukemia) [µM]
O=C1[C@@H](O)[C@@H]2CCCC[C@@]23CCCN13	> 100	> 100	> 100	> 100	> 100	> 100	> 100	> 100	> 100	–	> 100	–	> 100	> 100
C=CC1(c2ccc3ccccc3c2)OCC(CC)O1 (centres undefined)	–	> 100	> 100	> 100	23.3	77	91.2	93.2	> 100	–	> 100	> 100	> 100	61.4
C[N+]12C=CC=C1C(N1CCCC1)c1scc(-c3ccc(F)cc3)c12 (centres undefined)	> 100	51.3	> 100	> 100	–	> 100	45.3	> 100	> 100	–	> 100	> 100	–	31.9
CN(C)c1ccc(/C=C(\NC(=O)c2ccccc2)C(=O)Nc2cccc(C(=O)NCCCO)c2)cc1	> 100	> 100	> 100	> 100	> 100	> 100	> 100	> 100	> 100	> 100	> 100	> 100	> 100	–
Cc1ccccc1Nc1nc(NNC(=O)Cc2ccccc2)nc(NNC(=O)c2ccncc2)n1	> 10	> 10	> 10	> 10	> 10	> 10	> 10	> 10	–	> 10	> 10	–	> 10	> 10
CC(=O)n1[nH]c(=O)n(-c2ccccc2)c1=O	> 100	> 100	> 100	> 100	> 100	> 100	> 100	> 100	> 100	–	–	> 100	> 100	> 100
Cc1cc(S(=O)(=O)NC(=NCCc2ccccc2)NN)c(S)cc1Cl	> 100	> 100	34.6	> 100	> 100	59.1	> 100	68.6	–	51.3	69.7	82.5	> 100	> 100
COc1ccc2c(c1OC)C(=O)N/C2=C\c1c(CCN(C)C)cc2c(c1OC)OCO2	–	> 100	> 100	> 100	> 100	> 100	> 100	> 100	> 100	> 100	> 100	> 100	> 100	> 100
CCOC(=O)c1sc2nc1CSc1sc(=S)sc1SCc1nc(sc1C(=O)OCC)-c1nc(c(C(=O)OCC)s1)CSc1sc(=S)sc1SCc1nc-2sc1C(=O)OCC	> 10	> 10	–	> 10	> 10	> 10	> 10	> 10	> 10	> 10	> 10	> 10	> 10	> 10
CC(=O)Oc1ccc2cc(-c3ccc(OC(C)=O)c(OC(C)=O)c3)c(=O)oc2c1	–	> 100	> 100	> 100	> 100	> 100	> 100	> 100	> 100	> 100	–	> 100	> 100	> 100
O=[N+]([O-])C(/C=C(\Cl)[N+](=O)[O-])=C(N1CCCCC1)N1CCCCC1	> 100	55.5	> 100	> 100	41.7	> 100	> 100	21.4	> 100	56.7	–	–	69.2	51.1
CC(C)(C)n1c(=O)n2n(c1=O)C1c3cccc4cccc(c34)C2C2c3cccc4cccc(c34)C1n1c(=O)n(C(C)(C)C)c(=O)n12	> 100	> 100	> 100	> 100	> 100	> 100	> 100	> 100	> 100	> 100	> 100	> 100	> 100	–
CC1=CC(=O)N(n2c(Cc3ccc(Cl)cc3)n[nH]c2=O)C1=O	> 100	> 100	> 100	> 100	–	> 100	55.3	> 100	> 100	> 100	–	> 100	> 100	38.7
Cc1cc2c(cc1Cl)SC(NNC1=NCCN1)=NS2(=O)=O	> 10	> 10	> 10	> 10	> 10	> 10	> 10	> 10	> 10	> 10	> 10	> 10	> 10	–
CC1=CC(=O)N(n2c(-c3ccccc3)n[nH]c2=O)C1=O	> 100	> 100	> 100	> 100	> 100	> 100	> 100	> 100	> 100	> 100	> 100	> 100	> 100	–
O=S(=O)(CCC[C@H]1[C@@H](CCOCc2ccccc2)C2CCCN1O2)c1ccccc1 (some centres undefined)	> 100	> 100	–	> 100	–	> 100	> 100	> 100	> 100	> 100	> 100	> 100	> 100	> 100
O=C1C=C(c2ccccc2)O/C1=C\C(=O)c1ccc(Cl)cc1	32.5	30.8	> 100	> 100	–	61.5	13.1	29.4	–	> 100	18.2	10.1	37.1	> 100
